One series concerns A431 WT. In words: Cell proliferation assay (CellTiter-Glo), A431 WT. In kind it is cell-based. To be noted: Homo sapiens, A-431; A431 WT cells, 72 hour incubation, CTG readout. On the procedure: (§1) • DMEM Medium (Gibco, Cat#11965118) • RPMI1640 Medium (Gibco, Cat#11875119) • Fetal Bovine Serum (FBS) (GBICO, Cat#10099-141) • CellTiter-Glo® Luminescent Cell Viability Assay Kit (Promega, Cat#G7572) 96-well, Black, Clear Flat Bottom Plate (Corning®, Cat# 3603)
(§2) • SpectraMax Multimode Microplate Reader MD, 2104-0010A; • CO2 Incubator, Thermo Scientific 3100 Series; • Biosafety Cabinet, Thermo Scientific, 1300 Series A2; • Inverted Microscope, Olympus, CKX41SF; • Siemens Refrigerator, KK25E76TI.
(§3) • 1. Cell Culture and Inoculation: • (1) Harvest cells in a logarithmic growth phase and count the cells using a […]. Test cell viability using a trypan blue exclusion method to ensure that cell viability is above 90%. • (2) Adjust the cell concentration to desired final density; and add 90 µL of cell suspension to a 96-well plate. • (3) Incubate the cells overnight at 37°C, under 5% CO2 and 95% humidity in the 96-well plate. • 2. T0 Reference Data: • (1) Add 10 µL PBS to each well of the T0 plate containing cells. • (2) Thaw the CTG reagent and equilibrate the plate to room temperature for 30 minutes. • (3) Add an equal volume of CTG solution to each well. • (4) Lyse cells by shaking on an orbital shaker for 5 minutes. • (5) Leave the plate at room temperature for 20 minutes to stabilize the luminescence signal. • (6) Read the T0 […]. • 3. Compound Dilution and Addition • (1) Add a corresponding volume of DMSO to a corresponding compound powder according to the compound information sheet to prepare a 10 mM stock solution. • (2) Prepare 1000-fold and 3.16-fold diluted compound solutions. • (3) Dilute the 1000× diluted compound solution 100-fold with PBS to prepare a 10-fold compound solution, with a maximum concentration of 10 µM, nine concentrations and 3.16-fold dilution. Then add 10 µL of the drug solution concentration to individual wells of the 96-well plate seeded with cells. Test each compound concentration in triplicate wells, and the final DMSO concentration is 0.1%. • (4) Incubate the cells in the 96-well plate containing the drug compounds at 37°C, under 5% CO2, and 95% humidity for an additional 72 hour period prior to performing the CTG analysis. • 4. Fluorescence Signal Reading • (1) Thaw the CTG reagent and equilibrate the plate to room temperature for 30 minutes. • (2) Add an equal volume of CTG solution to each well. • (3) Lyse cells by shaking on an orbital shaker for 5 minutes. • (4) Leave the plate at room temperature for 20 minutes to stabilize the […]. • (5) Read fluorescence value. • 5. Data Processing
(§4) Analyze the data by using GraphPad Prism 7.0 software, and use Non-linear S-curve regression to fit the dose-response curves, to calculate the IC50 values (in nM). The specific experiment results are presented in Table 1: [formula] Table 1: Biology Test Results

Series [1] deals with Ba/F3 EGFR-L858R-C797S (LC). The experiment in a line: Cell proliferation assay (CellTiter-Glo), Ba/F3 LC. Format: cell-based. Particulars: Mus musculus, BaF3; Ba/F3 EGFR-L858R-C797S cells, 72 hour incubation, CTG readout. The protocol: as §1, §2, §3, §4
Series [2] concerns Ba/F3 EGFR-DEL19-T790M-C797S (DTC). The experiment in a line: Cell proliferation assay (CellTiter-Glo), Ba/F3 DTC. In kind it is cell-based. Particulars: Ba/F3 EGFR-DEL19-T790M-C797S cells, 72 hour incubation, CTG readout; read-out: IC50 BaF3 DTC. On the procedure: as §1, §2, §3, §4
Series [3] concerns Ba/F3 EGFR-DEL19-C797S (DC). The experiment in a line: Cell proliferation assay (CellTiter-Glo), Ba/F3 DC. To be noted: Mus musculus, BaF3; Ba/F3 EGFR-DEL19-C797S cells, 72 hour incubation, CTG readout. In kind it is cell-based. On the procedure:
as §1, §2, §3, §4
For orientation: In ATP-based viability assays light output follows the ATP content of the culture.

Series [4] has as its system Ba/F3 EGFR-L858R-T790M-C797S (LTC). The experiment in a line: Cell proliferation assay (CellTiter-Glo), Ba/F3 LTC. Format: cell-based. Particulars: Mus musculus, BaF3; Ba/F3 EGFR-L858R-T790M-C797S cells, 72 hour incubation, CTG readout. The protocol:
as §1, §2, §3, §4

A short description of series [5]: Pharmacokinetic experiment in mice. In kind it is in vivo. To be noted: male, mouse; ICR mice, single oral administration (PO), 10 mg/kg, plasma. The text has this: The purpose of this trial is to study the pharmacokinetic behavior of some compounds of the present invention, and the administration method is: Single oral administration (PO) to ICR mice.
The compounds used in this trial are from the compounds in the specific examples of the present invention and the listed positive compounds.
ICR mice male N=9 original source: Shanghai Sippr-Bk Lab Animal Co., Ltd.
The compounds are weighed and dissolved in the corresponding solution (10% PG + 10% Solutol® + 80% pH3 citrate buffer). The mixture is then shaken well and sonicated to prepare a 1 mg/mL stock solution. Nine mice are orally administered at a dose of 10 mg/kg (or IV 2 mg/kg) after an overnight fast.
About 90 µL of blood is collected via the submandibular vein per time point, heparin sodium anticoagulant is added, the sample is placed on ice after collection, and plasma is centrifuged within 1 hour (centrifugation conditions: 8,000 rpm, 6 minutes, 2-8°C). The blood collection timepoints are 0, 0.25, 0.5, 1, 2, 4, 6, 8 and 24 h. The samples are stored in a -20°C refrigerator.
The plasma sample is 40 µL, 160 µL of ice-cold acetonitrile containing internal standard is added, vortexed for 3 minutes, and centrifuged at 11,000 rpm for 5 minutes. 100 µL of the supernatant is taken and added to 100 µL of water, 5 µL of the sample is taken and injected into LC/MS/MS for analysis.

The text below walks through data of EP4563579A1, “MACROCYCLIC EGFR INHIBITOR, AND PREPARATION METHOD THEREFOR AND PHARMACEUTICAL USE THEREOF” (Abbisko Therapeutics Co., Ltd., priority 2022, dated 2024).

Broadly, the IC50 is the concentration that gives 50% inhibition. Regarding `Cn1ncc2c1OCC1(CCCCC1)Cn1nc(N3CC[C@@H](CS(C)(=O)=O)C3)c3cnc(cc31)Nc1ccnc-2n1` [Example 32, (R)-1'-methyl-3'-(3-((methylsulfonyl)methyl)pyrrolidin-1-yl)spiro(cyclohexane-1, 6'-8-oxa-3-aza-4(6,1)-pyrazolo[4,3-c]pyridina-2(2,4)-pyrimidina-1(4,5)-pyrazolacyclooctaphane)], the IC50 in the series on A431 WT worked out at 543 nM; in series [1], 14.9 nM; in series [2], 10.5 nM; in series [3], 5.1 nM; in series [4] it was 12.1 nM.

Consider `Cn1ncc2c1OCC1(CCCC1)Cn1nc(N3CCC[C@@H](CS(C)(=O)=O)C3)c3cnc(cc31)Nc1ccnc-2n1` [Example 28, (R)-1'-methyl-3'-(3-((methylsulfonyl)methyl)piperidin-1-yl)spiro(cyclopentane-1, 6'-8-oxa-3-aza-4(6,1)-pyrazolo[4,3-c]pyridina-2(2,4)-pyrimidina-1(4,5)-pyrazolacyclooctaphane)], for which the IC50 with A431 WT was 682 nM; in series [1], 45.7 nM; in series [2], 12.4 nM; in series [3], 12.8 nM; in series [4], 86.9 nM.

`CN1CCC(C#Cc2nn3c4cc(ncc24)Nc2ccnc(n2)-c2cnn(C)c2OCC2(CCCC2)C3)C1` (stereo not drawn) [Example 2, 1'-methyl-3-((1-methylpyrrolidin-3-yl)ethynyl)spiro(cyclopentane-1,6'-8-oxa-3-aza-4(6,1)-pyrazolo[4,3-c]pyridina-2(2,4)-pyrimidina-1(4,5)-pyrazolacyclooctaphane)]: the IC50 with A431 WT was found to be 603 nM; in series [1], 21.1 nM; in series [2] it was 17.5 nM; in series [3], 30.4 nM; in series [4] it was 12.8 nM.

For the molecule `Cn1ncc2c1OCC1(CCCC1)Cn1nc(N3CC(CS(C)(=O)=O)C3)c3cnc(cc31)Nc1ccnc-2n1` [Example 26, 1'-methyl-3'-(3-((methylsulfonyl)methyl)azetidin-1-yl)s piro(cyclopentane-1,6'-8-oxa-3-aza-4(6,1)-pyrazolo[4,3-c]pyridina-2(2,4)-pyrimidina-1(4,5)-pyrazolacyclooctaphane)], the IC50 with A431 WT turned out to be 645 nM; in series [1], 33.5 nM; in series [2], 16.3 nM; in series [3], 11.4 nM; in series [4] it was 28.5 nM.

With `COC(=O)N[C@H]1CCN(c2nn3c4cc(ncc24)Nc2ccnc(n2)-c2cnn(C)c2OCC2(CCCC2)C3)C1` [Example 55, Methyl (S)-(1-(1'-methylspiro(cyclopentane-1,6'-8-oxa-3-aza-4(6,1)-pyrazolo[4,3-c]pyridina-2(2,4)-pyrimidina-1(4,5)-pyrazolacyclooctaphane)-3'-yl)pyrrolidin-3-yl)carbamate], the IC50 came out at 329 nM in the series with A431 WT; 33.1 nM in series [1]; 8.5 nM in series [2]; 12.1 nM in series [3]; 12 nM in series [4].

Turning to `Cn1ncc2c1OCC1(CCC1)Cn1nc(N3CC(CS(C)(=O)=O)C3)c3cnc(cc31)Nc1ccnc-2n1` [Example 25, 1'-methyl-3'-(3-((methylsulfonyl)methyl)azetidin-1-yl)s piro(cyclobutane-1,6'-8-oxa-3-aza-4(6,1)-pyrazolo[4,3-c]pyridina-2(2,4)-pyrimidina-1(4,5)-pyrazolacyclooctaphane)], the IC50 with A431 WT worked out at 571 nM; in series [1], 123 nM; in series [2] it was 42.6 nM; in series [3], 66.5 nM; in series [4], 106 nM.

As to `CN1CCC(C#Cc2nn3c4cc(ncc24)Nc2ccnc(n2)-c2cnn(C)c2OCC2(CCC2)C3)CC1` [Example 5, 1'-methyl-3'-((1-methylpiperidin-4-yl)ethynyl)spiro(cyclobutane-1,6'-8-oxa-3-aza-4(6,1)-pyrazolo[4,3-c]pyridina-2(2,4)-pyrimidina-1(4,5)-pyrazolacyclooctaphane)], the IC50 in the series with A431 WT stood at 1080 nM; in series [1] it was 14 nM; in series [2], 4.7 nM; in series [3], 19.7 nM; in series [4] it was 9.2 nM.

Take `Cn1ncc2c1OCC1(CCCC1)Cn1nc(N3CC[C@@](C)(O)C3)c3cnc(cc31)Nc1ccnc-2n1` [Example 24, (R)-3-methyl-1-(1'-methylspiro(cyclopentane-1,6'-8-oxa-3-aza-4(6,1)-pyrazolo[4,3-c]pyridina-2(2,4)-pyrimidina-1(4,5)-pyrazolacyclooctaphane)-3'-yl)pyrrolidin-3-ol]: the IC50 in the series with A431 WT stood at 378 nM; in series [2] it was 0.7 nM; in series [3], 4.4 nM; in series [4], 6.1 nM.

For orientation: AUC(0-t) means the area under the concentration-time curve up to a stated or last time point. Low values mean less exposure, high ones more exposure. As a reminder, the Cmax is the peak of the concentration-time curve. By half-life is commonly meant how long it takes for the measured level to halve. The molecule `Cn1ncc2c1OCC1(CCCC1)Cn1nc(N3CC[C@H](CS(=O)(=O)C4CC4)C3)c3cnc(cc31)Nc1ccnc-2n1` [Example 40, (S)-3'-(3-((cyclopropylsulfonyl)methyl)pyrrolidin-1-yl)-1'-methylspiro(cyclopentane-1,6'-8-oxa-3-aza-4(6,1)-pyrazolo[4,3-c]pyridina-2(2, 4)-pyrimidina-1(4,5)-pyrazolacyclooctaphane)] registered an IC50 with A431 WT of 320 nM. In series [1], this molecule gave an IC50 of 2.1 nM. Also, in series [5], the AUC(0-t) turned out to be 4940 ng·h/mL, the peak level (Cmax) was 1350 ng/mL and the half-life is 3.5 h. Also, the IC50 in series [4] was found to be 0.7 nM.

Consider `Cn1ncc2c1OCC1(CCCC1)Cn1nc(N3CC[C@@H](O)C3)c3cnc(cc31)Nc1ccnc-2n1` [Example 22, (R)-1-(1'-methylspiro(cyclopentane-1,6'-8-oxa-3-aza-4(6,1)-pyrazolo[4,3-c]pyridina-2(2,4)-pyrimidina-1(4,5)-pyrazolacyclooctaphane)-3' -yl)pyrrolidin-3-ol], for which the IC50 in the series with A431 WT is 409 nM. Also, in series [1], the IC50 was 13.2 nM. In series [5], the AUC(0-t) is 2340 ng·h/mL, the Cmax was determined as 503 ng/mL and the half-life is 3 h. Moreover, the IC50 in series [4] worked out at 5.9 nM.

Consider `CCN1CCC(C#Cc2nn3c4cc(ncc24)Nc2ccnc(n2)-c2cnn(C)c2OCC2(CCCC2)C3)CC1` [Example 7, 3'-((1-ethylpiperidin-4-yl)ethynyl)-1'-methylspiro(cyclopentane-1,6'-8-oxa-3-aza-4(6,1)-pyrazolo[4,3-c]pyridina-2(2,4)-pyrimidina-1(4,5)-pyrazolacyclooctaphane)], for which, in the series with A431 WT, the midpoint of inhibition, the IC50, lay at 1660 nM. Besides, the IC50 in series [1] was 43.5 nM. In series [5], this molecule showed an AUC(0-t) of 2520 ng·h/mL, a Cmax of 193 ng/mL and a half-life of 5.6 h. Moreover, it took 24.6 nM to reach half-maximal inhibition in series [4] (IC50).
